# In BindingDB's records for PubMed 38503166 (University of Paris):
# Numbered stars: 1 amine (or outer) side, 2 acyl side, 3 side chain; on linkers, the order of the positions; unused ones are H or OH. Square brackets hold non-standard residues; d marks the D form. Peptide text beside a SMILES is read from it. * marks the point of attachment. Ala(1H-tetrazol-5-yl) = N[C@@H](Cc1nnn[nH]1)C(=O)O; Gly(cPent) = N[C@H](C(=O)O)C1CCCC1; X1 = C[C@H](N[*:1])C(=O)C(=O)[*:2]; Chg = N[C@H](C(=O)O)C1CCCCC1; OAll = C=CCO*
# Target: Subtilisin-like protease 1 (Plasmodium vivax)
# Assay: Inhibition of Plasmodium vivax SUB1 catalytic domain
row,SMILES,IC50 [µM]
1,C=CCOC(=O)CC[C@H](NC(=O)[C@H](CC(=O)O)NC(=O)C(=O)[C@H](C)NC(=O)[C@H](C)NC(=O)[C@@H](NC(=O)[C@@H](NC(C)=O)C1CCCC1)[C@@H](C)O)C(N)=O,0.07
2,C=CCOC(=O)CC[C@H](NC(=O)[C@H](CC(=O)O)NC(=O)C(=O)[C@H](C)NC(=O)[C@H](C)NC(=O)[C@@H](NC(=O)[C@@H](NC(C)=O)[C@@H](C)CC)[C@@H](C)O)C(N)=O (Ac-ITA[X1]DE(OAll)-NH2),0.1
3,C=CCOC(=O)CC[C@H](NC(=O)[C@H](Cc1nnn[nH]1)NC(=O)C(=O)[C@H](C)NC(=O)[C@H](C)NC(=O)[C@@H](NC(=O)[C@@H](NC(C)=O)[C@@H](C)CC)[C@@H](C)O)C(N)=O (Ac-ITA[X1][Ala(1H-tetrazol-5-yl)]E(OAll)-NH2),2.22

# The remaining lines, values ahead:
row,IC50 [µM],SMILES
1,0.15,C=CCOC(=O)CC[C@H](NC(=O)[C@H](CC(=O)O)NC(=O)C(=O)[C@H](C)NC(=O)[C@H](C)NC(=O)[C@@H](NC(=O)[C@@H](NC(C)=O)C1CCCCC1)[C@@H](C)O)C(N)=O (Ac-[Chg]TA[X1]DE(OAll)-NH2)
2,0.15,CC(=O)N[C@H](C(=O)N[C@H](C(=O)N[C@@H](C)C(=O)N[C@@H](C)C(=O)C(=O)N[C@@H](CC(=O)O)C(N)=O)[C@@H](C)O)C1CCCC1 (Ac-[Gly(cPent)]TA[X1]D-NH2)
